Values of other authors in patent publication US20220054615A1 (priority 2018, published 2022).

Tests used:
IgG2a = settings: mouse, in vivo
[1] = system: human peripheral blood mononuclear cells (PBMCs)

CCCCCCCCCCCC(=O)CC(=O)N[C@H](COCC[C@@H](CCCCCCC)OC(=O)CCCCCCCCCCC)COP(=O)([O-])OCCNC(=O)NCCOP(=O)([O-])OC[C@@H](COCC[C@@H](CCCCCCC)OC(=O)CCCCCCCCCCC)NC(=O)CC(=O)CCCCCCCCCCC.[Na+].[Na+] [E6020, dodecanoic acid, (1R,6R, 22R, 27R)-1,27-dihexyl-9,19-dihydroxy-9,19-dioxido-14-oxo-6,22-bis [(1,3-di oxotetradecyl)amino]-4,8,10, 18, 20, 24-hexaoxa-13,15-di aza-9,19-dephosphaheptacosane-1,27-diyl ester, disodium salt]
enhance: IgG2a (IgG2a) | GM-CSF, IL-1, IL-6 and TNF-α [1] | GM-CSF, IL-1, IL-6 and TNF-α (mouse spleen)
